Experimental findings from paper PMC9184620, “TAS1553, a small molecule subunit interaction inhibitor of ribonucleotide reductase, exhibits antitumor activity by causing DNA replication stress” (Communications Biology, 2022) are described below.

Experiment [1] deals with T1, human R1 (Homo sapiens, UniProt P23921).
T1 construct: made in house; host or cells: Escherichia coli
T1 sequence (P23921 1-792): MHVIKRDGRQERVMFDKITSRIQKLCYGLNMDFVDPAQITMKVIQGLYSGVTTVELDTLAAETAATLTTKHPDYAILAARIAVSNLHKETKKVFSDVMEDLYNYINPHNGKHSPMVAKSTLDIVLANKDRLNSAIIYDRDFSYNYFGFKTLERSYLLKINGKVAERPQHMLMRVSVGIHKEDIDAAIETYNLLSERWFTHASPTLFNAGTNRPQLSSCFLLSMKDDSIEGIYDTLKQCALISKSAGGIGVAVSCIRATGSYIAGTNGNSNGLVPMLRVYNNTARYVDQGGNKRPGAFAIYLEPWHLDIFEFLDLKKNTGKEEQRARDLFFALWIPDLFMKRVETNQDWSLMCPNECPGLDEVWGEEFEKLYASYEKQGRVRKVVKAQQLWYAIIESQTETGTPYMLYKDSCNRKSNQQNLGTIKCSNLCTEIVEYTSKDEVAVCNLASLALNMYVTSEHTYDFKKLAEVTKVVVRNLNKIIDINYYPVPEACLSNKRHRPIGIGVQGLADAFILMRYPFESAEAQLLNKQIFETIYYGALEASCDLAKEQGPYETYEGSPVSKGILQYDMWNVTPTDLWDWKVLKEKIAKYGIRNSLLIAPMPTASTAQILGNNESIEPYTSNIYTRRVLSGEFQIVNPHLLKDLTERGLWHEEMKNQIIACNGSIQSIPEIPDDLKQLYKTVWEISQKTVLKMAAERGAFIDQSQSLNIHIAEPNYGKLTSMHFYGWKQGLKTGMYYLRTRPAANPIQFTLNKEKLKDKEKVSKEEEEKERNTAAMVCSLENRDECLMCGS
In words: Fluorescence polarization binding assay (displacement of TAMRA-labeled P7 from R1). The source says: Fig. 1 Design and identification of the small molecule compound TAS1553 blocking the interaction between RNR subunits. a A schematic representation of the fluorescent polarization binding assay. TAMRA-labeled P7 heptapeptide was used as a probe. […] Data are presented as mean ± SD obtained from three independent experiments. c Chemical structures of compound 1 and TAS1553. d Superposition of the X-ray co-crystal structure of human RRM1 (green) with compound 1 (magenta) (PDB ID: 6L3R) to the previously determined X-ray co-crystal structure of Saccharomyces cerevisiae RNR1 (cyan) with P7 peptide (yellow) (PDB ID: 2ZLF). The residue numbers and protein surface shown here are those of hRRM1. e SPR analysis for the binding of TAS1553 to human R1 captured onto Series S Sensor Chip NTA. […] IC50 (mean ± SD) is determined from three independent experiments performed in triplicate.
TAMRA-labeled P7 peptide was obtained from Peptide Institute, Inc. to be used as a fluorescent probe in the FP binding assay. The final reaction mixture was composed of 50 mmol/L Tris-Cl (pH 8.0), 10 mmol/L DTT, 10 nmol/L TAMRA-P7, 32 ng/mL His-R1, and 1% DMSO with or without test compound. The assay was performed for 120 min at room temperature with protection from light, after which FP of each sample was measured with a PHERAstarFS. IC50 values were calculated using the SAS software package in EXSUS (CAC Croit).
On the technique in general: In fluorescence polarisation assays a small probe gives low polarisation when free and higher when bound to something large.

In experiment [2] the test system is MV-4-11 xenograft. In words: Antitumor activity in rats bearing MV-4-11 xenografts. Format: in vivo. The note with it: 32 mg/kg intravenously for 5 consecutive days. As to the method: (§1) Next, we evaluated the antitumor activity of a high-dose administration of TAS1553 and cytarabine in rats bearing MV-4-11 xenografts. […] The rats were treated with cytarabine for 5 days at 16 and 32 mg/kg. […] In addition to the hematologic tumor, we evaluated the antitumor activity of TAS1553 in mice implanted with HCC38 cell line as a solid tumor model. […] Finally, TAS1553 was evaluated for its survival benefit in a mouse model. To achieve this, we established mice bone marrow cells harboring the human MLL-AF9 fusion gene, which is known as a driver gene for AML in humans as well as mice[48].
For the subcutaneous implantation model of MV-4-11, F344/NJcl-rnu/rnu rats were irradiated with X-ray (4 Gy) to improve the efficiency of xenograft implantation. Two days after X-ray irradiation, MV-4-11 cells suspended in PBS with 50 vol% Matrigel were inoculated into the rats (2 × 10^7 cells/animal). In the mice subcutaneous implantation model, HCC38 cells suspended same as above were inoculated into male BALB/cAJcl-nu/nu mice (1 × 10^7 cells /body). […] Antitumor activity and body weight change were evaluated as previously reported. Dunnett test using the SAS software package in EXSUS (CAC Croit) was used to compare the tumor volume (P < 0.05).

Experiment [3] relates to HCC38 xenograft. In words: Antitumor activity in mice bearing HCC38 xenografts. It counts as in vivo, mouse. As to conditions: 20 mg/kg intravenously once a week. As for the experimental part: as §1, with “mice[48]. Mice were transplanted with the cells through the tail vein and the treatment with TAS1553 was started 11 days post-implantation.” for “mice[48].”
For the subcutaneous implantation model of MV-4-11, F344/NJcl-rnu/rnu rats were irradiated with X-ray (4 Gy) to improve the efficiency of xenograft implantation. Two days after X-ray irradiation, MV-4-11 cells suspended in PBS with 50 vol% Matrigel were inoculated into the rats (2 × 10^7 cells/animal). In the mice subcutaneous implantation model, HCC38 cells suspended same as above were inoculated into male BALB/cAJcl-nu/nu mice (1 × 10^7 cells /body). The animals were randomized and administered with the compound for 14 days. Antitumor activity and body weight change were evaluated as previously reported. Dunnett test using the SAS software package in EXSUS (CAC Croit) was used to compare the tumor volume (P < 0.05).

Experiment [4] deals with T2, RNR (R1 and R2 recombinant proteins) (Homo sapiens, UniProt P23921).
T2 construct: made in house; host or cells: Escherichia coli
T2 sequence (P23921 1-792): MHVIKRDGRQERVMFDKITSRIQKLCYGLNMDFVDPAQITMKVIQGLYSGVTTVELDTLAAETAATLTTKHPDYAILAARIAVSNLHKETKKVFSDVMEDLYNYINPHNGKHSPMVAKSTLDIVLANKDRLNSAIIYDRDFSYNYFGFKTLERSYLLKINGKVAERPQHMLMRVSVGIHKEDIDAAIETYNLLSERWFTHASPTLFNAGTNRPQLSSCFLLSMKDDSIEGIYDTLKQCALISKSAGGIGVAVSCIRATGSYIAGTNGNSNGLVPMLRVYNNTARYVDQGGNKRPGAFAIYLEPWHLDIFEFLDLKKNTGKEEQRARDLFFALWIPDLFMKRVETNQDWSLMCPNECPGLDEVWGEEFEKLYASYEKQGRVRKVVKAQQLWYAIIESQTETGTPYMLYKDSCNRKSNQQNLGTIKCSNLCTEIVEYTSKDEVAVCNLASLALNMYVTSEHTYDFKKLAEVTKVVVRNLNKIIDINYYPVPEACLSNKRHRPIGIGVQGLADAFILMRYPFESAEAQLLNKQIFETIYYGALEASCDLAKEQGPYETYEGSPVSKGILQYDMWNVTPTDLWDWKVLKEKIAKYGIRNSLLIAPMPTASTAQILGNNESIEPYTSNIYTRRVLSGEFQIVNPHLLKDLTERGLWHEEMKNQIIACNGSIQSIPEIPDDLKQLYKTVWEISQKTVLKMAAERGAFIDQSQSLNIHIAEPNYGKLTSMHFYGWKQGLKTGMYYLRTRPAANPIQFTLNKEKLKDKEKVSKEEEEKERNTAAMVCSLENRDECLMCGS
Kind of experiment: RNR assay (formation of dCDP from CDP). It counts as biochemical. As for the experimental part:
The binding affinity of TAS1553 to the R1 subunit was investigated using surface plasmon resonance (SPR) binding analysis. […] Next, we evaluated the inhibitory effect of TAS1553 against the enzymatic activity of RNR, consisting of R1 and R2 recombinant proteins. RNR activity was determined by its ability to reduce cytidine diphosphate (CDP) to deoxycytidine diphosphate (dCDP), based on a previous report. […] In addition to the inhibitory effect on RNR, TAS1553 was evaluated in a Eurofins LeadProfilingScreen panel assay including 68 proteins, such as ion channels, transporters, nuclear receptors, and G protein-coupled receptors, to examine its potential adverse activity.
The inhibition of RNR activity by the test compound was evaluated by measuring the formation of dCDP from CDP, as reported previously. The assay was performed for 30 min at 37 °C in a reaction mixture composed of 50 mmol/L HEPES, 4 mmol/L magnesium acetate, 100 mmol/L KCl, 6 mmol/L DTT, 2 mmol/L ATP, 0.24 mmol/L NADPH, 10.0 µmol/L CDP, 0.1 mg/mL BSA, 8.0 µg/mL His-R1, 2.4 µg/mL His-R2, and 1% DMSO with or without test compound. The reaction was discontinued by heat treatment at 95 °C for 5 min. The amount of dCDP after the reaction was quantified by a prominence HPLC system and LabSolutions software (SHIMADZU CORPORATION). Separations were performed at 265 nm in a Shim-pack XR-ODS column of particle size 2.2 μm (100 × 3.0 mm, SHIMADZU GLC Ltd.). Overall, 5 µL of each sample was injected, and chromatography was performed at 40 °C. Mobile A was composed of 10 mmol/L potassium dihydrogenphosphate, 10 mmol/L tetrabutylammonium hydroxide, 0.25% methanol and 8 mmol/L HCl. Mobile B was composed of 50 mmol/L potassium dihydrogenphosphate, 5.6 mmol/L tetrabutylammonium hydroxide, and 30% methanol. The gradient was as follows: 52–60% B for 9 min, 60–99% B for 1 min, 99% B for 5 min, 99–52% B for 1 min, and 52% B for 5 min. The flow rate was 0.5 mL/min. The experiment was performed in triplicates. IC50 values were calculated using the SAS software package.

The target of experiment [5] is T3, 6x His-tagged recombinant human R1 (RRM1) (human, UniProt P23921 1-792).
T3 construct: also called His-R1; hRRM1
T3 sequence (looked up): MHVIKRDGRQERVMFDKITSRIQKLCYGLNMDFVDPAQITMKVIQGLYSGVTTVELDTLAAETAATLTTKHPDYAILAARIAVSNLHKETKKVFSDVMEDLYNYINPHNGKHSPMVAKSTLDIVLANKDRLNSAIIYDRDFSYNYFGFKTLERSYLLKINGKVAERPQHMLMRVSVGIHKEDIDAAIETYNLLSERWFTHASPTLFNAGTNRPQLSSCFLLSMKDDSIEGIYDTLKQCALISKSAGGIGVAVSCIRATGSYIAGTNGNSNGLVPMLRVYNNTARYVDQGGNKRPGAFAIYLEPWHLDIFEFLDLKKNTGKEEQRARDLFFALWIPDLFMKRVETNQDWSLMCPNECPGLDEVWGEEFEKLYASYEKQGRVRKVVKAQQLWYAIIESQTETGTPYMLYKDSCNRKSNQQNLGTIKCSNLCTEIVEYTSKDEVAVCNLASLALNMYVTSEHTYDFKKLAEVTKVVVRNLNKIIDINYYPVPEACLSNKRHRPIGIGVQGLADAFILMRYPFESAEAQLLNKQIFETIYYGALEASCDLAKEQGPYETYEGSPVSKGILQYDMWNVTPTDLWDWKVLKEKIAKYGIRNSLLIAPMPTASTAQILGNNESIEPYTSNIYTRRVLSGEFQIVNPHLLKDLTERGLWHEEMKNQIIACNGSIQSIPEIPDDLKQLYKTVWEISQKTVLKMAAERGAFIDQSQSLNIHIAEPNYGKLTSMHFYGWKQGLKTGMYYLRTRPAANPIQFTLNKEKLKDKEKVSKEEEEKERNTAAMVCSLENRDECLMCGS
Kind of experiment: fluorescence polarisation; competition: 10 nmol/L TAMRA-P7 probe, 32 ng/mL His-R1, with or without test compound; 50 mmol/L Tris-Cl pH 8.0, 10 mmol/L DTT, 1% DMSO; 120 min, room temperature. The note with it: both partners purified.

Experiment [6] deals with T3, 6x His-tagged recombinant human R1 …. Kind of experiment: AlphaScreen or HTRF; AlphaLISA: 4.3 ug/mL His-R1 (Nickel Chelate Acceptor beads), 3.3 ug/mL GST-R2 (Glutathione Donor beads), with or without test compound; 50 mmol/L HEPES, 4 mmol/L magnesium acetate, 100 mmol/L KCl, 6 mmol/L DTT, 2 mmol/L ATP, 0.24 mmol/L NADPH, 0.010 mmol/L CDP, 0.1 vol% polysorbate 20, 1 vol% DMSO; 60 min, room temperature. The note with it: both partners purified. Background: In Alpha technology, singlet oxygen from a donor bead excites a nearby acceptor bead.

Ends that are not written are not given here.

Usually IC50 stands for the point on the concentration scale where inhibition reaches its midpoint. Consider `C[C@H](c1cccc2ccccc12)[C@H](NS(=O)(=O)c1ccc(Br)cc1)c1n[nH]c(=O)o1` [compound 1, 4-bromo-N-[(1S,2R)-2-(naphthalen-1-yl)-1-(5-oxo-4,5-dihydro-1,3,4-oxadiazol-2-yl)propyl]benzenesulfonamide], for which the “potency relative to Fmoc-L-phenylalanine (binding inhibition)” value in experiment [1] (FP binding IC50 ratio) was ~ 2000 fold. The IC50 in experiment [1] (R1 and TAMRA-labeled P7, mean ± SD, three independent experiments, read-out: IC50, fluorescent polarization binding assay) came to 527 ± 21 nM.

With `Nc1ccn([C@@H]2O[C@H](CO)[C@@H](O)[C@@H]2O)c(=O)n1` [cytarabine, reference compound], the T/C ratio in experiment [2] is recorded as 77.4%.

Take `CC(=O)O[C@H]1C(=O)[C@@]2(C)[C@H]([C@H](OC(=O)c3ccccc3)[C@]3(O)C[C@H](OC(=O)[C@H](O)[C@@H](NC(=O)c4ccccc4)c4ccccc4)C(C)=C1C3(C)C)[C@]1(OC(C)=O)CO[C@@H]1C[C@@H]2O` [paclitaxel]: the T/C ratio in experiment [3] is on record as 63.6%.

In the case of Ac-FTLDADF [P7, N-AcFTLDADF], in experiment [4], the IC50 turned out to be 14.5 ± 1 µM.

B1: P7 heptapeptide (N-AcFTLDADF) (peptide)
peptide: Ac-FTLDADF
notes: also called unlabeled P7; P7 peptide; source: synthetic peptide; bought: Peptide Institute, Inc
For B1, the figures for the IC50 in experiment [5] and in experiment [6] were 2490 nM and 9.22 µM, respectively.

B2: TAMRA-labeled P7 peptide (peptide)
peptide: FTLDADF
modifications: also: TAMRA label, site not given here
notes: also called TAMRA-P7; fluorescence tagged P7; source: synthetic peptide; bought: Peptide Institute, Inc
With B2, the binding result in experiment [5] is reported as “binds”.
